Reference: ChEMBL document CHEMBL4334513, “Discovery of a Potent, Selective, and Orally Available MTHFD2 Inhibitor (DS18561882) with in Vivo Antitumor Activity” (J Med Chem, 2019)
Converted amounts (≈) assume the structure as drawn. One block for each molecule: values may come before it.

How the values were obtained:
[1] = molecular target: T1, Bifunctional methylenetetrahydrofolate dehydrogenase/cyclohydrolase, mitochondrial (Homo sapiens, UniProt P13995); test: Inhibition of recombinant MTHFD2 (unknown origin) using THF as substrate incubated for 30 mins in presence of NAD
T1 sequence (P13995 whole entry): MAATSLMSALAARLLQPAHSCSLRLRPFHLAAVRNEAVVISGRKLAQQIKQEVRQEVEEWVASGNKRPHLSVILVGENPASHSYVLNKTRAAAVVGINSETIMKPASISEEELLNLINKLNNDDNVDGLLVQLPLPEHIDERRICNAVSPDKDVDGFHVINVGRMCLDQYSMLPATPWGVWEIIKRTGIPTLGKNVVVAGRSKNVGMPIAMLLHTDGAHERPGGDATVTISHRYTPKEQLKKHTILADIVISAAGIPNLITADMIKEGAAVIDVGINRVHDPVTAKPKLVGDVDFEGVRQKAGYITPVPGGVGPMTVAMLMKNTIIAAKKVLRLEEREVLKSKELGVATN

[2] = Effective permeability of compound at pH 7.4 by PAMPA; format: ADME; conditions: read-out: Peff
[3] = molecular target: T2, C-1-tetrahydrofolate synthase, cytoplasmic (Homo sapiens, UniProt P11586)
T2 sequence (P11586 whole entry): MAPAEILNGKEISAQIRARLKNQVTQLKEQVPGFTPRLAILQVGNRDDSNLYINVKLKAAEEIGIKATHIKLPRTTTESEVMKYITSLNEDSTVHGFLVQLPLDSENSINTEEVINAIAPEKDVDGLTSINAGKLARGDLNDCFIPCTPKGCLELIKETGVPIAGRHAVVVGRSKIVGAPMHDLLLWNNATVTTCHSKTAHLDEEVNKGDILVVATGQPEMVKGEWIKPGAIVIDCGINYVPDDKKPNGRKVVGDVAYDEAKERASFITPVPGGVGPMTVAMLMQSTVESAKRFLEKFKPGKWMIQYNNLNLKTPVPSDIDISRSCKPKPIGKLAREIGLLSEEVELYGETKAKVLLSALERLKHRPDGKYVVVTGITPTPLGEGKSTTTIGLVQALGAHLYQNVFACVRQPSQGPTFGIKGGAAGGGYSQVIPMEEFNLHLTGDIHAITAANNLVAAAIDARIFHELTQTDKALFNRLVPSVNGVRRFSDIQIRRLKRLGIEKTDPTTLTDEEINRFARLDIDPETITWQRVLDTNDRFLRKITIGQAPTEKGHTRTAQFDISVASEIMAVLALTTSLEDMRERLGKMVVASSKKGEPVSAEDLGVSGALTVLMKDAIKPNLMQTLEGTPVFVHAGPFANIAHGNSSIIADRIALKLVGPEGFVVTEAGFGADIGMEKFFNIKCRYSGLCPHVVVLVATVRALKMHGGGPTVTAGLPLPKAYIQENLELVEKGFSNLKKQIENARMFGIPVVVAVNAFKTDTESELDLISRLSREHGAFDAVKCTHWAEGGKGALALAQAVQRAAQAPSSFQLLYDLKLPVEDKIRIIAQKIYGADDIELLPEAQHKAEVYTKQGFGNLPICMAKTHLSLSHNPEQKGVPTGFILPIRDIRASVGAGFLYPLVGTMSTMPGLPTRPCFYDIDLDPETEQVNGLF
Description: Inhibition of recombinant MTHFD1 (unknown origin) using THF as substrate incubated for 30 mins in presence of NAD

[4] = Antiproliferative activity against human MDA-MB-231-luc-D3H2LN cells assessed as inhibition of growth after 3 days by CellTiter Glo assay; format: functional; conditions: 72 h
[5] = Lipophilicity, logP of compound; format: physicochemical; conditions: octanol/water
[6] = Dissociation constant, acidic pKa of compound; format: physicochemical
[7] = AUC in BALBc mouse at 300 mg/kg, po measured for 24 hrs by LC-MS/MS analysis; format: ADME, organism-based; conditions: in vivo
[8] = Cmax in BALBc mouse at 30 mg/kg, po measured for 24 hrs by LC-MS/MS analysis; format: ADME, organism-based; design: dose 30 mg/kg, route oral; conditions: in vivo
[9] = Solubility of compound in pH 6.8; format: physicochemical; conditions: buffer
[10] = Metabolic stability in mouse liver microsomes assessed as remaining parent compound at 1 uM after 0.5 hrs; format: ADME, Microsome; conditions: read-out: Stability
[11] = AUC in BALBc mouse at 30 mg/kg, po measured for 24 hrs by LC-MS/MS analysis; format: ADME, organism-based; conditions: in vivo
[12] = Lipophilicity, logD of compound; format: physicochemical; conditions: octanol/water
[13] = AUC in BALBc mouse at 10 mg/kg, po measured for 24 hrs by LC-MS/MS analysis; format: ADME, organism-based; conditions: in vivo
[14] = Effective permeability of compound at pH 5 by PAMPA; format: ADME; conditions: read-out: Peff
[15] = Fraction unbound in mouse plasma; format: ADME, cell-free
[16] = Toxicity in BALB/cAJcl nu/nu mouse xenografted with human MDA-MB-231-Luc cells assessed as body weight loss at 300 mg/kg, po administered bid for 11 days and measured every 1 to 2 days; format: organism-based; conditions: in vivo
[17] = Cmax in BALBc mouse at 300 mg/kg, po measured for 24 hrs by LC-MS/MS analysis; format: ADME, organism-based; design: dose 300 mg/kg, route oral; conditions: in vivo
[18] = Antitumor activity against human MDA-MB-231-Luc cells xenografted in BALB/cAJcl nu/nu mouse assessed as tumour growth inhibition at 300 mg/kg, po administered bid for 11 days and measured every 2 to 3 days relative to control; format: functional; conditions: read-out: TGI
[19] = Half life in BALBc mouse at 300 mg/kg, po measured for 24 hrs by LC-MS/MS analysis; format: ADME, organism-based; conditions: in vivo
[20] = Half life in BALBc mouse at 30 mg/kg, po measured for 24 hrs by LC-MS/MS analysis; format: ADME, organism-based; conditions: in vivo
[21] = Solubility of compound in pH 1.2; format: physicochemical; conditions: buffer
[22] = Cmax in BALBc mouse at 100 mg/kg, po measured for 24 hrs by LC-MS/MS analysis; format: ADME, organism-based; design: dose 100 mg/kg, route oral; conditions: in vivo
[23] = Cmax in BALBc mouse at 10 mg/kg, po measured for 24 hrs by LC-MS/MS analysis; format: ADME, organism-based; design: dose 10 mg/kg, route oral; conditions: in vivo
[24] = Half life in BALBc mouse at 100 mg/kg, po measured for 24 hrs by LC-MS/MS analysis; format: ADME, organism-based; conditions: in vivo
[25] = Free plasma concentration in BALBc mouse at 10 to 300 mg/kg, po measured after 24 hrs by LC-MS/MS analysis; format: ADME, organism-based; conditions: in vivo
[26] = Half life in BALBc mouse at 10 mg/kg, po measured for 24 hrs by LC-MS/MS analysis; format: ADME, organism-based; conditions: in vivo
[27] = AUC in BALBc mouse at 100 mg/kg, po measured for 24 hrs by LC-MS/MS analysis; format: ADME, organism-based; conditions: in vivo

- pKa [6]: 6.8
- AUC at 24 h [7]: 929 µg·h/mL
- Cmax [8]: 12700 ng/mL
- Papp [2]: 31.1 ×10⁻⁶ cm/s
- solubility [9]: 120 µg/mL (≈ 220 µM)
- remaining at 0.5 h, 1 µM [10]: 91%
- AUC at 24 h [11]: 79.2 µg·h/mL
- logD [12]: 1.3
- AUC at 24 h [13]: 25.3 µg·h/mL
- Papp [14]: 7.2 ×10⁻⁶ cm/s
- fraction unbound [15]: 0.153
- Cmax [17]: 82600 ng/mL
- half-life [19]: 2.32 h
- half-life [20]: 3.35 h
- solubility [21]: 240 µg/mL (≈ 440 µM)
- Cmax [22]: 37900 ng/mL
- Cmax [23]: 3660 ng/mL
- half-life [24]: 3.51 h
- logP [5]: 1.8
- Cp(f) [25]: 0 ng/mL
- half-life [26]: 2.73 h
- AUC at 24 h [27]: 306 µg·h/mL
SMILES: Cc1c(N2CCN(C)CC2)ccc2c3c(c(=O)oc12)CN(C(=O)c1ccc(NS(C)(=O)=O)c(Cl)c1)CC3
- Activity [16]: Non-Toxic
- inhibition in vivo at 300 mg/kg [18]: 43%
- GI50 [4]: 940 nM

- logD [12]: 1.7
- logP [5]: 2.2
SMILES: Cc1c(N2C[C@@H](C)N(C)[C@@H](C)C2)ccc2c3c(c(=O)oc12)CN(C(=O)c1ccc(NS(C)(=O)=O)c(Cl)c1)CC3
- GI50 [4]: 760 nM

- pKa [6]: 8.4
- IC50 [1]: 400 nM
- Papp [2]: 44.2 ×10⁻⁶ cm/s
- IC50 [3]: > 30000 nM
- logP [5]: 1.6
SMILES: COc1cc(C(=O)N2CCc3c(c(=O)oc4c(C)c(N5CCN(C)CC5)ccc34)C2)ccc1NS(C)(=O)=O
- GI50 [4]: 10000 nM

- IC50 [1]: 130 nM
- logP [5]: 2
SMILES: Cc1c(N2CCN(C)[C@H](C)C2)ccc2c3c(c(=O)oc12)CN(C(=O)c1ccc(NS(C)(=O)=O)c(Cl)c1)CC3
- GI50 [4]: 1700 nM

- pKa [6]: 6.8
- IC50 [1]: 33 nM
- Papp [2]: > 50 ×10⁻⁶ cm/s
- IC50 [3]: 4200 nM
- logP [5]: 1.9
SMILES: Cc1c(N2CCN(C)CC2)ccc2c3c(c(=O)oc12)CN(C(=O)c1ccc(NS(C)(=O)=O)c(Br)c1)CC3
- GI50 [4]: 1600 nM

Second part, the molecule before the results:

SMILES: Cc1c(N2CCN(C)CC2)ccc2c3c(c(=O)oc12)CN(C(=O)c1cc(Cl)cc(NS(C)(=O)=O)c1)CC3
- IC50 [1]: 89 nM
- Papp [2]: 6.6 ×10⁻⁶ cm/s
- IC50 [3]: > 30000 nM
- GI50 [4]: 5500 nM
- logP [5]: 1.8

SMILES: CN(C)c1ccc(-c2ccc3c4c(c(=O)oc3c2)CN(C(=O)c2ccc(C(=O)O)cc2)CC4)cc1
- IC50 [1]: 3800 nM
- IC50 [3]: 5400 nM

SMILES: Cc1c(N2CCN(C)CC2)ccc2c3c(c(=O)oc12)CN(C(=O)c1ccc(NS(C)(=O)=O)c(OC(F)(F)F)c1)CC3
- pKa [6]: 6.8
- Papp [2]: 43.7 ×10⁻⁶ cm/s
- GI50 [4]: 380 nM
- logP [5]: 1.9

SMILES: CN(C)Cc1ccc(-c2ccc3c4c(c(=O)oc3c2)CN(C(=O)c2ccc(C(=O)O)cc2)CC4)cc1
- IC50 [1]: 340 nM
- IC50 [3]: 23000 nM

SMILES: Cc1c(N2CCN(C)CC2)ccc2c3c(c(=O)oc12)CN(C(=O)c1ccc(NS(C)(=O)=O)cc1)CC3
- pKa [6]: 8.2
- IC50 [1]: 200 nM
- Papp [2]: 5.4 ×10⁻⁶ cm/s
- IC50 [3]: > 30000 nM
- GI50 [4]: 6300 nM
- logP [5]: 1.6

SMILES: Cc1cccc2oc(=O)c3c(c12)CCN(C(=O)c1ccc(C(=O)O)cc1)C3
- IC50 [1]: 1300 nM
- IC50 [3]: > 30000 nM

SMILES: Cc1c(N2CCN(C)CC2)ccc2c3c(c(=O)oc12)CN(C(=O)c1ccc2c(c1)CS(=O)(=O)N2)CC3.O=C(O)C(F)(F)F
- pKa [6]: 5.7
- IC50 [1]: 18 nM
- Papp [2]: < 0.1 ×10⁻⁶ cm/s
- IC50 [3]: 5200 nM
- GI50 [4]: 19000 nM
- logP [5]: 1.6
